These are literature values, as cited in patent US6514710B1, “Method of using cyclic peptides to inhibit binding to urokinase-type plasminogen activator receptor” (Angstrom Pharmaceuticals, Inc., priority 1996, dated 2003).

pIC50: −log10 of the molar value. Read-outs that look alike come from different tables or passages of the source.

Series [1] deals with T1, uPAR (Homo sapiens, UniProt Q03405). The conditions noted are these: read-out: IC50, prevention of uPA binding to uPAR.
The subject of series [2] is murine Lewis Lung carcinoma. The conditions noted are these: murine Lewis Lung carcinoma in mice; peptides derived from the mouse sequence.
Series [3] deals with T1, uPAR. The note with it: read-out: IC50, inhibition of the binding of uPA to uPAR.

T1 sequence (Q03405 23-305): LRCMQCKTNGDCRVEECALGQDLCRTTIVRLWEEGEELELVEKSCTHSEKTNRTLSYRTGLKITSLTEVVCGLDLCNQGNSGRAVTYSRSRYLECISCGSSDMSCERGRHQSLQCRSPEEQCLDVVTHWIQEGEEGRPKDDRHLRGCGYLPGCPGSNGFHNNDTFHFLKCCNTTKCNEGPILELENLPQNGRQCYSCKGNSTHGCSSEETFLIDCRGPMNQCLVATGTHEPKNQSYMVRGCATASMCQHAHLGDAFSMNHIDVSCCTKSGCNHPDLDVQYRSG

For the substance “[Ala^19]uPA-(12-32) [[Ala^19]uPA-(12-32) open chain form]”, at uPAR [1], the pIC50 (as a rule, −log10 of the IC50, conventionally taken in molar units) was 7.00.
Regarding “[Ala^19]uPA-(12-32) [[Ala^19]uPA-(12-32) oxidized cyclic form]”, the pIC50 at uPAR [1] is 7.40.
For the substance “corresponding linear shorter peptide (20-30): linear shorter peptide (20-30) corresponding to the mouse sequence (CVSYKYFSRIR; UniProt P06869 40-50, looked up, fragment)”, the “inhibition of spontaneous metastasis” value in series [2] is “had no effect”.
For the substance “linear peptide 20-30: linear peptide of uPA residues 20-30 (VSNKYFSNIHW; UniProt P00749 40-50, looked up, fragment)”, the pIC50 with uPAR [3] was 6.00.
On to “peptide 17-34: longer peptide of uPA residues 17-34 (GTCVSNKYFSNIHWCNCP; UniProt P00749 37-54, looked up, fragment)”, for which the pIC50 with uPAR [3] was 7.00.
“peptide (17-34) derived from the mouse sequence: corresponding longer peptide (17-34) derived from the mouse uPA sequence (GGVCVSYKYFSRIRRCSC; UniProt P06869 37-54, looked up, fragment)”: in series [2], the “inhibition of spontaneous metastasis” value was “inhibited spontaneous metastasis”.
